Test results from US11427549B2, “Pyrimidinyloxy benzo-fused compounds as herbicides” (FMC Corporation, priority 2017, dated 2022).

What was measured:
[1] = tested on: barnyardgrass (Echinochloa crus-galli); assay: Test A preemergence, barnyardgrass; assay type: in vivo; details: Echinochloa crus-galli, pre-emergence, 240 h, 0 to 100 scale (0 no effect, 100 complete control), read-out: Plant response rating, Barnyardgrass
kochia (Kochia scoparia) [2] = assay: Test A preemergence, kochia; assay type: in vivo; details: Bassia scoparia, pre-emergence, 240 h, 0 to 100 scale (0 no effect, 100 complete control), read-out: Plant response rating, Kochia
[3] = tested on: ragweed (common ragweed, Ambrosia elatior); assay: Test A preemergence, ragweed; assay type: in vivo; details: Ambrosia artemisiifolia, pre-emergence, 240 h, 0 to 100 scale (0 no effect, 100 complete control), read-out: Plant response rating, Ragweed
[4] = tested on: ryegrass, Italian (Italian ryegrass, Lolium multiflorum); assay: Test A preemergence, ryegrass, Italian; assay type: in vivo; details: Lolium multiflorum, pre-emergence, 240 h, 0 to 100 scale (0 no effect, 100 complete control), read-out: Plant response rating, Ryegrass, Italian
[5] = tested on: pigweed (Amaranthus retroflexus); assay: Test A preemergence, pigweed; assay type: in vivo; details: Amaranthus retroflexus, pre-emergence, 240 h, 0 to 100 scale (0 no effect, 100 complete control), read-out: Plant response rating, Pigweed
[6] = tested on: barnyardgrass (Echinochloa crus-galli); assay: Test A postemergence, barnyardgrass; assay type: in vivo; details: Echinochloa crus-galli, post-emergence, 240 h, 0 to 100 scale (0 no effect, 100 complete control), read-out: Plant response rating, Barnyardgrass
kochia (Kochia scoparia) [7] = assay: Test A postemergence, kochia; assay type: in vivo; details: Bassia scoparia, post-emergence, 240 h, 0 to 100 scale (0 no effect, 100 complete control), read-out: Plant response rating, Kochia
[8] = tested on: ragweed (common ragweed, Ambrosia elatior); assay: Test A postemergence, ragweed; assay type: in vivo; details: Ambrosia artemisiifolia, post-emergence, 240 h, 0 to 100 scale (0 no effect, 100 complete control), read-out: Plant response rating, Ragweed
[9] = tested on: ryegrass, Italian (Italian ryegrass, Lolium multiflorum); assay: Test A postemergence, ryegrass, Italian; assay type: in vivo; details: Lolium multiflorum, post-emergence, 240 h, 0 to 100 scale (0 no effect, 100 complete control), read-out: Plant response rating, Ryegrass, Italian
[10] = tested on: foxtail, green (green foxtail, Setaria viridis); assay: Test A postemergence, foxtail, green; assay type: in vivo; details: Setaria, post-emergence, 240 h, 0 to 100 scale (0 no effect, 100 complete control), read-out: Plant response rating, Foxtail, Green
[11] = tested on: pigweed (Amaranthus retroflexus); assay: Test A postemergence, pigweed; assay type: in vivo; details: Amaranthus retroflexus, post-emergence, 240 h, 0 to 100 scale (0 no effect, 100 complete control), read-out: Plant response rating, Pigweed
[12] = tested on: wheat (Triticum aestivum); assay: Test A postemergence, wheat; assay type: in vivo; details: Triticum aestivum, post-emergence, 240 h, 0 to 100 scale (0 no effect, 100 complete control), read-out: Plant response rating, Wheat
corn (Zea mays) = assay: Test A postemergence, corn; assay type: in vivo; details: Zea mays, post-emergence, 240 h, 0 to 100 scale (0 no effect, 100 complete control)
[13] = tested on: blackgrass (Alopecurus myosuroides); assay: Test A postemergence, blackgrass; assay type: in vivo; details: Alopecurus myosuroides, post-emergence, 240 h, 0 to 100 scale (0 no effect, 100 complete control), read-out: Plant response rating, Blackgrass
[14] = tested on: galium (catchweed bedstraw, Galium aparine); assay: Test A postemergence, galium; assay type: in vivo; details: Galium, post-emergence, 240 h, 0 to 100 scale (0 no effect, 100 complete control), read-out: Plant response rating, Galium
rice (Oryza sativa) = assay: Test B flooded paddy test, rice; details: Oryza sativa, read-out: Plant response rating, Rice (0 to 100 scale, 0 is no effect, 100 is complete control)
[15] = tested on: ducksalad (Heteranthera limosa); assay: Test B flooded paddy test, ducksalad; details: Heteranthera limosa, read-out: Plant response rating, Ducksalad (0 to 100 scale, 0 is no effect, 100 is complete control)
[16] = tested on: barnyardgrass (Echinochloa crus-galli); assay: Test B flooded paddy test, barnyardgrass; details: Echinochloa crus-galli, read-out: Plant response rating, Barnyardgrass (0 to 100 scale, 0 is no effect, 100 is complete control)

Molecule `CCCC1OC(=O)Cc2cccc(Oc3ncc(Cl)cn3)c21` (stereo not drawn) [Compound 35, 8-[(5-Chloro-2-pyrimidinyl)oxy]-1,4-dihydro-1-propyl-3H-2-benzopyran-3-one] has a pest or weed control at 31 g/ha ([1]; 31 g ai/ha) of 0%, a pest or weed control at 125 g/ha ([1]; 125 g ai/ha) of 10% and a pest or weed control at 31 g/ha (kochia (Kochia scoparia) [2]; 31 g ai/ha) of 0%. It also gave a pest or weed control at 125 g/ha (kochia (Kochia scoparia) [2]; 125 g ai/ha) of 0%, a pest or weed control at 31 g/ha ([3]; 31 g ai/ha) of 0% and a pest or weed control at 125 g/ha ([3]; 125 g ai/ha) of 0%. It also gave a pest or weed control at 31 g/ha ([4]; 31 g ai/ha) of 0%, a pest or weed control at 125 g/ha ([4]; 125 g ai/ha) of 0% and a pest or weed control at 31 g/ha ([5]; 31 g ai/ha) of 0%. The pest or weed control at 125 g/ha ([5]; 125 g ai/ha) was 10%, the pest or weed control at 31 g/ha ([6]; 31 g ai/ha) was 0% and the pest or weed control at 125 g/ha ([6]; 125 g ai/ha) was 0%. For the same molecule, the pest or weed control at 31 g/ha (kochia (Kochia scoparia) [7]; 31 g ai/ha) was 20%, the pest or weed control at 125 g/ha (kochia (Kochia scoparia) [7]; 125 g ai/ha) was 50% and the pest or weed control at 31 g/ha ([8]; 31 g ai/ha) was 0%. For the same molecule, the pest or weed control at 125 g/ha ([8]; 125 g ai/ha) was 10%, the pest or weed control at 31 g/ha ([9]; 31 g ai/ha) was 0% and the pest or weed control at 125 g/ha ([9]; 125 g ai/ha) was 0%. For the same molecule, the pest or weed control at 31 g/ha ([10]; 31 g ai/ha) was 10%, the pest or weed control at 125 g/ha ([10]; 125 g ai/ha) was 10% and the pest or weed control at 31 g/ha ([11]; 31 g ai/ha) was 30%. For the same molecule, the pest or weed control at 125 g/ha ([11]; 125 g ai/ha) was 50%, the plant injury at 31 g/ha ([12]; 31 g ai/ha) was 0% and the plant injury at 125 g/ha ([12]; 125 g ai/ha) was 0%. The Corn plant response rating (crop injury, 0 = no effect, 100 = complete kill) at 31 g/ha (corn (Zea mays); 31 g ai/ha) was 0%, the Corn plant response rating (crop injury, 0 = no effect, 100 = complete kill) at 125 g/ha (corn (Zea mays); 125 g ai/ha) was 0% and the pest or weed control at 31 g/ha ([13]; 31 g ai/ha) was 10%. It also gave a pest or weed control at 125 g/ha ([13]; 125 g ai/ha) of 10%, a pest or weed control at 31 g/ha ([14]; 31 g ai/ha) of 10% and a pest or weed control at 125 g/ha ([14]; 125 g ai/ha) of 30%. It also gave a plant injury at 250 g/ha (rice (Oryza sativa)) of 0%, a pest or weed control at 250 g/ha [15] of 0% and a pest or weed control at 250 g/ha [16] of 0%.
